Data set [1] concerns PC3 human prostate tumor cells in SCID male mice. The class given is in vivo. The method, then: The 5-6 week old severe combined immune deficiency (SCID) male mice (ordered from NIH, each weighing about 20 g) were divided into groups of five mice per group. Log-phase PC3 human prostate tumor cells were subcutaneously injected (2×10^6 cell per mouse) into the mice. After the tumors had become established (about 50 mm^3), the mice were subcutaneously injected with or without 3 mg/kg GA every day. The mice body weights and tumor sizes were recorded every day and the tumor sizes were determined by Vernier caliper measurements and calculated as length×width×height. After 15 days, mice with subcutaneous (hereinafter, s.c.) tumors no greater than 1.5 cm in diameter were sacrificed in accordance with University of California Los Angeles Animal Rights Committee Guidelines. The tumors were removed and fixed with Histochoice® MB (Molecular Biology) tissue fixative (Amresco®) and embedded with paraffin. The 5 μm sections were performed specific blood vessel staining with CHEMICON's Blood Vessel Staining Kit (von Willebrand Factor, Chemicon International, blood vessel staining kit, peroxidase system). Images were taken with a ZEISS Axioskop 40 photomicroscope. The number of blood vessels in the high power fields (HPF, 200×) was counted (plug number=4-5, t-test, p<0.005).

For data set [2], the system named is HUVEC cells. Put plainly: Transwell migration (invasion) assay. The class given is cell-based, human. The note with it: 40 nM GA, 4 hours. The protocol:
The transwell (Corning Incorporated, NY, USA) were coated with 0.1% gelatin (Sigma) for 30 minutes at 37° C. After washed the transwells three times with 1×PBS, the bottom chambers (600 μl) were filled with ECGM medium with 20% FBS supplemented with 4 ng/ml VEGF and the top chambers were seeded with 100 μl ECGM medium and HUVEC cells (4×10^4 cell/well). The top and bottom chambers contained the same series of concentrations of gambogic acid (GA). HUVEC cells were allowed to migrate for 4 hours at 37° C., 5% CO2. After the incubation, cells on the top surface of the membrane (nonmigrated) were scraped with a cotton swab. Cells on the bottom side of the membrane (migrated cells) were fixed with 4% paraformaldehyde for 20 minutes and washed three times with 1×PBS. The cells were stained by hematoxylin and eosin (hereinafter, H&E) staining and then destained with 1×PBS (pH 7.4). The membranes were left to air dry at room temperature for 30 minutes. Images were taken using an OLYMPUS inverted microscope and migrated cells were quantified by manual counting using high power fields (HPF, 200×). The invaded cells were calculated and percent inhibition was expressed using untreated wells as 100% (t-test, p<0.01).

Data set [3] has as its system HUVEC cells. Put plainly: Wound migration assay, VEGF dependent. The note with it: 10 nM GA, 4 ng/ml VEGF, 24 hours. The class given is cell-based, human. The method, then: HUVEC cells were allowed to grow to full confluence on six-well plates precoated with 0.1% gelatin. Monolayer cells were wounded by scratching with 1 ml pipette tip and washed three times with 1×PBS. Fresh endothelial cell growth medium (hereinafter, ECGM) was added with or without 4 ng/ml VEGF, which was received from the NIH experimental branch, and supplemented with different concentrations of GA. Images were taken after 24 hours of incubation at 37° C. in a 5% CO2 incubator (hereinafter, 5% CO2) with a Nikon digital camera. For PC3 cell migration, PC3 cells were allowed to grow to full confluence on six-well plates and wounded by scratching with a 1 ml pipette tip and washed three times of 1×PBS. Fresh 1640 medium was added with 4 ng/ml VEGF and different concentrations of GA. After a 24-hour incubation period, images were take with a Leica DM IRB inverted microscope. The migrated cells were quantified by manual counting of high power fields (HPF, 200×) and percent inhibition was expressed using untreated wells as 100% (t-test, p<0.005).

For data set [4], the system named is HUVEC cells. Put plainly: Proliferation assay (CellTiter 96 Aqueous One). The class given is cell-based. The conditions noted are these: Homo sapiens, read-out: Concentration that inhibits HUVEC cell proliferation by 50%. From the text:
(§1) HUVEC and PC3 cell proliferation assays with different concentrations of GA were followed according to the CellTiter 96 Aqueous One Solution Cell Proliferation Assay (Promega) and analyzed using a VERSAMAX microplate reader (Molecular Devices).

The test system of a further data set is PC3 cells. Put plainly: Proliferation assay (CellTiter 96 Aqueous One). The class given is cell-based. The conditions noted are these: Homo sapiens, PC-3; PC3 cancer cells; read-out: Concentration required to inhibit PC3 cell proliferation by 50%.
From the text: as §1

We go through 1 compound from patent US20090259054A1, “Methods and Compositions for the Treatment of Angiogenesis and Macular Degeneration” (The Texas A&M University System, priority 2008, published 2009).

Where “and” joins values, the source holds several entries; their conditions need not be identical. Equal entries are not always repeated. Entries after “also recorded” stand apart in the source; their conditions may differ.

Take `CC(C)=CCC[C@]1(C)C=Cc2c(O)c3c(c(CC=C(C)C)c2O1)O[C@]12C(=C[C@@H]4C[C@H]1C(C)(C)O[C@@]2(C/C=C(/C)C(=O)O)C4=O)C3=O` [GA, gambogic acid]: the “Tumor size after 15 days” value in data set [1] (3 mg/kg GA every day s.c., 15 days) is 169.1±25.6 mm^3 and 127.4±25.6 mm^3. In data set [1] (3 mg/kg GA every day, 15 days, HPF 200×), the “Average vessel number in tumors” value is listed as 1.8±1.3 per HPF. Further, the “Tumor size at start of treatment” value in data set [1] (GA treated group, before 3 mg/kg GA every day) came to 51.74±3.8 mm^3. In addition, in data set [1] (mouse, in vivo), the “Average body weight at start” value came to 22.4 ± 1 g. Moreover, in the data set with HUVEC cells [2], the “Invasion of HUVEC cells (transwell)” value was “inhibit almost all invasion activities”. For the same compound, the “VEGF dependent migration of HUVEC cells” value with HUVEC cells [3] was “inhibits VEGF dependent migration; also recorded: strongly inhibited VEGF dependent migration”. Further, the IC50 with HUVEC cells [4] is 80 nM; with PC3 cells, more than 400 nM.
